Entries after “also recorded” stand apart in the source; their conditions may differ. Structures can show the parent of a compound that is named as a salt.
How the values were obtained:
[1] = Stability of CPZ in aqueous solution; format: physicochemical; conditions: aqueous solution / cell culture medium
SH-SY5Y cells [2] = test: Transferrin (Trf) uptake under pharmacological endocytosis inhibitors (control for clathrin-mediated endocytosis); format: cell-based, human; conditions: for effect of inhibitor on Trf uptake: 10 µM cytochalasin A, 25 µg/ml cytochalasin D, 10 µM IPA-3 or 25 nM wortmannin, Trf 5 µg/ml 5 min
Experimental: (§1) Flow cytometry was used to quantify cellular uptake. The samples were washed in serum free medium (1x for experiments including only Aβ and 3x for experiments with Trf) prior to incubation with Aβ peptides and/or other reagents in serum free medium supplemented with 30 mM HEPES and 2% B-27. For experiments including Trf B-27 was omitted, as outlined above. Prior to analysis, the cells were washed 1x (for experiments including only Aβ) or 3x (for experiments including Aβ and dextran 10 kDa or Trf) in serum free medium, detached by trypsin-EDTA for 10 min followed by addition of FBS-supplemented cell culture medium to inhibit further proteolytic degradation. All samples were kept on ice until they were analysed on a Guava EasyCyte 8HT (Millipore, Darmstadt, Germany) that automatically retrieves samples from a 96-well plate. In order to exclude effects due to difference in delay time we used mixed order of analysis, loading only a few samples at a time with the remaining samples kept on ice. The cell counting gate was determined using propidium iodide (0.5 µM, not washed away prior to analysis) and calcein-AM (10 nM, 15 min staining) to distinguish live and dead cells, and for each sample 5,000 cells from within the live gate were counted and analysed. HF488, AlexaFluor488, EGFP and calcein-AM were excited by a 488 nm laser and their fluorescence was detected through a 525/30 nm filter. Propidium iodide and mRFP were excited by the 488 nm laser but detected through a 692/46 nm filter. HF647 and AlexaFluor647 were excited with a 635 nm laser and detected through a 661/19 nm filter. Compensation was performed to adjust for bleed through in experiments including mRFP. Mean cellular uptake was estimated as the average fluorescence intensity of all cells gated within the live region and all individual experiments were performed with three technical replicates (n = 3) unless else is stated. The average fluorescence intensity was baseline corrected by subtracting the signal for unstained cells.
Endocytic mechanisms were also perturbed by treatment of cells with pharmacological inhibitors. Stock solutions of cytochalasin A, cytochalasin D, dynasore, wortmannin and IPA-3 were prepared in DMSO and diluted in serum-free cell culture media supplemented with 30 mM HEPES on the day of the experiment. The final DMSO concentration added to the cells was kept <0.1% and matched for the control. Prior to addition of Aβ peptide the cells were always washed in serum-free medium followed by pre-incubation for 30 min with either of the inhibitors diluted in serum-free medium with the addition of 30 mM HEPES. 1 µM Aβ was thereafter added and the cells were incubated for a total of 1 h, in presence of the respective inhibitors. The cells were centrifuged 1000 * g for 5 min at 4 °C, washed 3x with ice-cold serum-free medium, followed by detachment and immediate flow cytometry analysis, as detailed above. […] However, under exposure conditions where at least 75% if the inhibitor-treated cells were found in the live gate (see Supplementary Fig. S5) we observed reductions in Aβ uptake. Only the live cells were included in the analysis. Trf was used as a positive control for clathrin-mediated endocytosis. Due to the rapid uptake and recycling of internalized Trf we adopted an optimized protocol with sufficiently short Trf incubation times. First, to remove the quantities of membrane-bound Trf that originate from the serum component of the complete culture medium the cells were washed 3x in serum-free medium. The cells were then subjected to the inhibitors as described above and thereafter exposed to a 5 min pulse of 5 µg/ml Trf. To remove externally bound fluorescently labelled Trf the cells were thereafter washed (3x/2 min) in ice-cold acidic buffer (0.1 M Glycine-HCl buffer pH 2.5 with 150 mM NaCl)[35] whilst kept on ice. […]

SH-SY5Y cells [3] = test: Cell viability by flow cytometry FSC/SSC live/dead gating; format: cell-based; conditions: for fraction of inhibitor-treated cells in the live gate: 90 min exposure at the concentrations used (10 µM cytochalasin A, 25 µg/ml cytochalasin D, 10 µM IPA-3, 25 nM wortmannin, 5 µg/ml CPZ, 80 µM dynasore), FSC/SSC gating
Experimental: Flow cytometry was used to quantify cellular uptake. […] For experiments including Trf B-27 was omitted, as outlined above. […] All samples were kept on ice until they were analysed on a Guava EasyCyte 8HT (Millipore, Darmstadt, Germany) that automatically retrieves samples from a 96-well plate. In order to exclude effects due to difference in delay time we used mixed order of analysis, loading only a few samples at a time with the remaining samples kept on ice. The cell counting gate was determined using propidium iodide (0.5 µM, not washed away prior to analysis) and calcein-AM (10 nM, 15 min staining) to distinguish live and dead cells, and for each sample 5,000 cells from within the live gate were counted and analysed. […] Compensation was performed to adjust for bleed through in experiments including mRFP. Mean cellular uptake was estimated as the average fluorescence intensity of all cells gated within the live region and all individual experiments were performed with three technical replicates (n = 3) unless else is stated. The average fluorescence intensity was baseline corrected by subtracting the signal for unstained cells.
(1 picture or pasted object on this page, not shown here)

[4] = test system: SH-SY5Y cells transfected with dyn2 K44A; test: Uptake in cells transfected with dominant negative dynamin2 K44A; format: cell-based, human; conditions: SH-SY5Y 24 h post transfection; HF647-labelled Aβ 1 µM 1 h or AF647-Trf 5 µg/ml 5 min; gated low/medium/high EGFP; N = 2, n = 3–5
Experimental: as §1, with “In order to exclude effects due to difference in delay time we used mixed order of analysis, loading only a few samples at a time with the remaining samples kept on ice.” left out, “HF647 and AlexaFluor647 were excited with a 635 nm laser and detected through a 661/19 nm filter. Compensation was performed to adjust for bleed through in experiments including mRFP. Mean cellular uptake was estimated as the average fluorescence intensity of all cells gated within the live region and all individual experiments were performed with three technical replicates (n = 3) unless else is stated. The average fluorescence intensity was baseline corrected by subtracting the signal for unstained cells.” left out

[5] = test system: SH-SY5Y cells transfected with AP180-C; test: Uptake in cells overexpressing AP180-C; format: cell-based, human; conditions: SH-SY5Y 24 h post transfection; HF488-labelled Aβ 1 µM 1 h or AF647-Trf 5 µg/ml 5 min; low and high mRFP gates; N = 2, n = 2–4
Experimental: as §1, with “cells. […]” for “cells.”

Molecule: CN(C)CCCN1c2ccccc2Sc2ccc(Cl)cc21 [CPZ, chlorpromazine hydrochloride]
- stability in solution [1]: rapidly degraded in aqueous solutions; also recorded: rapid degradation in solution
- inhibition at 5 µg/mL (SH-SY5Y cells [2]; Homo sapiens, 5 µg/ml CPZ, Trf 5 µg/ml 5 min pulse at end of 1 h Aβ incubation, n = 3): ~30%

Molecule: CCN(c1nc(N)c(C(=O)NC(=N)N)nc1Cl)C(C)C [EIPA]
- specificity as macropinocytosis inhibitor (SH-SY5Y cells [2]; 25–200 µM): unspecific in SH-SY5Y cells regardless of the concentration used

Molecule: Oc1ccc2ccccc2c1SSc1c(O)ccc2ccccc12 [IPA-3, 1,1′-Disulfanediyldinaphthalen-2-ol]
- effect of inhibitor on Trf uptake (SH-SY5Y cells [2]; n = 3): identical to that in the control
- fraction of inhibitor-treated cells in the live gate (SH-SY5Y cells [3]): at least 90%

Molecule: C=C1[C@@H](C)[C@H]2[C@H](Cc3ccccc3)NC(=O)[C@]23OC(=O)/C=C/C(=O)CCC[C@@H](C)C/C=C/[C@H]3[C@@H]1O [cytochalasin A]
- effect of inhibitor on Trf uptake (SH-SY5Y cells [2]; n = 3): reduced the uptake of Trf
- fraction of inhibitor-treated cells in the live gate (SH-SY5Y cells [3]): > 85%

Molecule: C=C1[C@@H](C)[C@H]2[C@H](Cc3ccccc3)NC(=O)[C@]23[C@H](OC(C)=O)/C=C/[C@@](C)(O)C(=O)[C@@H](C)C/C=C/[C@H]3[C@@H]1O [cytochalasin D]
- effect of inhibitor on Trf uptake (SH-SY5Y cells [2]; n = 3): reduced the uptake of Trf
- fraction of inhibitor-treated cells in the live gate (SH-SY5Y cells [3]): > 85%

Molecule: O=C(N/N=C/c1ccc(O)c(O)c1)c1cc2ccccc2cc1O [dynasore]
- inhibition at 80 µM (SH-SY5Y cells [2]; Homo sapiens, 5 min, 80 µM dynasore, 5 µg/ml AF647-Trf 5 min pulse, range over 4 independent experiments): 30 to 65%

Molecule: COC[C@H]1OC(=O)c2coc3c2[C@@]1(C)C1=C(C3=O)[C@@H]2CCC(=O)[C@@]2(C)C[C@H]1OC(C)=O [wortmannin]
- effect of inhibitor on Trf uptake (SH-SY5Y cells [2]; n = 3): identical to that in the control
- fraction of inhibitor-treated cells in the live gate (SH-SY5Y cells [3]): at least 90%

Molecule: Transferrin [Trf]
- uptake in dyn2 K44A transfected cells relative to non-transfected cells [4]: inhibited in proportion to the degree of dyn2 K44A expression
- uptake in AP180-C transfected cells compared to non-transfected cells [5]: systematically decreased with the degree of AP180-C overexpression

Molecule: methyl-β-cyclodextrin
- cytotoxicity during cholesterol depletion (SH-SY5Y cells [3]): high levels of cytotoxicity

From PMC5435687 (Scientific Reports, 2017)
